Measured values: US12680083B2, “Media for culturing naive human pluripotent stem cells” (Yeda Research and Development Co. Ltd., priority 2014, dated 2026)

Key:
[1] = test system: WIBR3 hESCs with ESRRB mCherry knock-in reporter; assay: FACS analysis of ESRRB-mCherry knock-in reporter; format: cell-based, human
Description: FIGS. 26A-C depict the targeting human ESRRB (a gene/transcription factor) locus with knockin mCherry fluorescent reporter. FIG. 26A-Targeting scheme is illustrated. Scissors indicate CRISPR-sgRNA cut site. In order to create mCherry reporter co-expressed with endogenous human ESRRB locus, the present inventors have chosen to knock in p2a-mCherry coding sequence in frame with the last exon of the human ESRRB gene. The present inventors have inserted oligos specific for the stop codon region of ESRRB gene into px335 plasmid which encodes CAS9 nickase and sgRNA. The present inventors have targeted WIBR3 human ESC OCT4 GFP knockin cell line. The efficiency of the targeting was about 30% (15 out of 48 clones) as verified by external PCR. Correct targeting was also verified by Southern Blot (SB) with external and anti-mCherry probes (FIG. 26B). After Neo cassette excision with Flippase, the whole targeted locus from one of the clones was amplified and sequenced. Clones 2-6 were correctly targeted (FIG. 26C).
FIGS. 26D-H are FACS analyses depicting expression of ESRRB-mCherry reporter in PSCs.

PKCα = PKCα (Homo sapiens, UniProt P17252); conditions: cited from earlier work
PKCβ = PKCβ (Homo sapiens, UniProt P05771); conditions: cited from earlier work
Chain of PKCβ (P05771 whole entry, species assumed): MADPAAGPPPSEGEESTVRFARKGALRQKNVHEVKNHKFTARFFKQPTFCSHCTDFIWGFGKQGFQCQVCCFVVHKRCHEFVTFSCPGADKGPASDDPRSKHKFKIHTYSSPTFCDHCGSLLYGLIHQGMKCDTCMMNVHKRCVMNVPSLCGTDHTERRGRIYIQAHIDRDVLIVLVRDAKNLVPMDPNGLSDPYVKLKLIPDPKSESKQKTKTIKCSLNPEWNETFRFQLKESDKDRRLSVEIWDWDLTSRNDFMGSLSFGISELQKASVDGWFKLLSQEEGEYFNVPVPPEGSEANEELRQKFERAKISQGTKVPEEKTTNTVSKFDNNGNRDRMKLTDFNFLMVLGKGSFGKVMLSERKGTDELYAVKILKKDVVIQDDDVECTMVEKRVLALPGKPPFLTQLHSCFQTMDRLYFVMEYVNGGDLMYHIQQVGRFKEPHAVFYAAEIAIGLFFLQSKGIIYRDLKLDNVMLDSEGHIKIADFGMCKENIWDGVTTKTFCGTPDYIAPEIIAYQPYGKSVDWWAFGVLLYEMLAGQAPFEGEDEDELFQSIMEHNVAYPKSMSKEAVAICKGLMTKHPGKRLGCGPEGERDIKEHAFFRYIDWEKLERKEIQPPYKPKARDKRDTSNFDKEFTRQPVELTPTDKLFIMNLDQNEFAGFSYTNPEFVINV

PKCγ = PKCγ (Homo sapiens, UniProt P05129); conditions: cited from earlier work
PKCδ = PKCδ (Homo sapiens, UniProt Q05655); conditions: cited from earlier work
Chain of PKCδ (Q05655 whole entry): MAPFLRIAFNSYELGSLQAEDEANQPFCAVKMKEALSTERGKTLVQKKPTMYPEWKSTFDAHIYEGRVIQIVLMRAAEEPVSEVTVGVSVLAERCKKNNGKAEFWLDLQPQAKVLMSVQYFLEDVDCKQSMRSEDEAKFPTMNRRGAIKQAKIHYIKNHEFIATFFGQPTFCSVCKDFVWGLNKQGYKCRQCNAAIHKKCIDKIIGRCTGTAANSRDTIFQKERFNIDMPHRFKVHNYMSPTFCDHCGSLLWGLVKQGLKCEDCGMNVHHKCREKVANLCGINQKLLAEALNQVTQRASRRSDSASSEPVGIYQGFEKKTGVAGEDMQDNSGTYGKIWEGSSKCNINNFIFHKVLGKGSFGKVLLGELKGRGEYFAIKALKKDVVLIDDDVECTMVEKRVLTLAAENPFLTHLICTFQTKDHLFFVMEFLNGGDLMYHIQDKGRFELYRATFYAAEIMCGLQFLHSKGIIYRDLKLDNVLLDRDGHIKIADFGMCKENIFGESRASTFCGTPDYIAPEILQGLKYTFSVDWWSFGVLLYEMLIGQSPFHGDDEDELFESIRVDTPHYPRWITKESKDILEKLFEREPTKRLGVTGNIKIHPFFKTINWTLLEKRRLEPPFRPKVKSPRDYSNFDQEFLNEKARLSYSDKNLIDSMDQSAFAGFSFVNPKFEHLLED

PKCζ = molecular target: T1, PKCζ (Homo sapiens, UniProt Q05513); conditions: cited from earlier work
T1 sequence (Q05513 1-592): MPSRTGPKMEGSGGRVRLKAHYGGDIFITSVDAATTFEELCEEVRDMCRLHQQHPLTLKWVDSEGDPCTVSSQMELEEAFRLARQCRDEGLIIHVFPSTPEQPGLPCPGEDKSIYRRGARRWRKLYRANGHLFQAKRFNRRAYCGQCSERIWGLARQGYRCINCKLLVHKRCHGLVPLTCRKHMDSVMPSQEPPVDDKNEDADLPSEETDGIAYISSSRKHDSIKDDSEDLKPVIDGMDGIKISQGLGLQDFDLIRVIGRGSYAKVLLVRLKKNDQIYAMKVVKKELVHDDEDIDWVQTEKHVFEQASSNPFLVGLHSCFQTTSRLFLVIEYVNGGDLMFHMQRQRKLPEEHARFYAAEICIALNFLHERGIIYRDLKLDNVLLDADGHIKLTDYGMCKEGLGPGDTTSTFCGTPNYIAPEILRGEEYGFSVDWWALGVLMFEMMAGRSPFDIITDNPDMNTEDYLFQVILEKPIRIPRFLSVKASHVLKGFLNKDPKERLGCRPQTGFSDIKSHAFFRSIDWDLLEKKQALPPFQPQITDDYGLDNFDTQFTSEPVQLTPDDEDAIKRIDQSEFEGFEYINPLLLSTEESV

PKCμ = molecular target: T2, PKCμ (Homo sapiens, UniProt Q15139); conditions: cited from earlier work
T2 sequence (Q15139 1-912): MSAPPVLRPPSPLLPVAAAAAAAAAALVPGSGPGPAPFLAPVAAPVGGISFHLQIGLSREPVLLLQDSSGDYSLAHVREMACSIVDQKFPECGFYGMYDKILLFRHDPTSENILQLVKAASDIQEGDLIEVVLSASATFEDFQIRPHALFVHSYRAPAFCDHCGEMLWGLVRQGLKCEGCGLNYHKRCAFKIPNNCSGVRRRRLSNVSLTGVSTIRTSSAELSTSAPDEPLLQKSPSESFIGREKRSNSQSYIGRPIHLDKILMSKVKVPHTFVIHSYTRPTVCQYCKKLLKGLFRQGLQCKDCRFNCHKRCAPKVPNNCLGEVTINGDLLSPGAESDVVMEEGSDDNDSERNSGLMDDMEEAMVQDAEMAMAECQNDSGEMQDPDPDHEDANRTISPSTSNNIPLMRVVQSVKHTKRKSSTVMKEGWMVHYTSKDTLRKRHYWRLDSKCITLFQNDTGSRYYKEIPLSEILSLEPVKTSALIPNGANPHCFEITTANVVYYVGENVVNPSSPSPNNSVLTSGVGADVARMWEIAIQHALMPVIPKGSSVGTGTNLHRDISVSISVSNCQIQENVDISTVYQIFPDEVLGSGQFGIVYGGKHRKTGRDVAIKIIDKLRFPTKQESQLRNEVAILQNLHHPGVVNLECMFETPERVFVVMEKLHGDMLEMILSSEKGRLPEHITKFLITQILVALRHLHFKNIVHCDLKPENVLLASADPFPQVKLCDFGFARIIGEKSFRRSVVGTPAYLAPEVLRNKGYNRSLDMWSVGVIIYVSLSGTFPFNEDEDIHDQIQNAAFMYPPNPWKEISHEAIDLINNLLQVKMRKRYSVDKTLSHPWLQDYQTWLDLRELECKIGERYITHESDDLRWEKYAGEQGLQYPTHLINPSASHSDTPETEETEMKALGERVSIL

With `COc1cc2nc(N3CCCN(C)CC3)nc(NC3CCN(Cc4ccccc4)CC3)c2cc1OC` [BIX01294] the “ESRRB mCherry expression” value ([1]; conditions 136 with BIX01294 removed from the culture medium) was “this effect is lost”.

In the case of `COc1ccc2c(c1)c(C1=C(c3c[nH]c4ccccc34)C(=O)NC1=O)cn2CCCN(C)C` [Go6983], the IC50 (PKCα) is listed as 7 nM, the IC50 (PKCβ) is listed as 7 nM and the IC50 (PKCγ) is listed as 6 nM. The IC50 (PKCδ) was 10 nM, the IC50 (PKCζ) was 60 nM and the IC50 (PKCμ) was 20000 nM.

B1: Activin A: also known as Inhibin beta A, INHBA; activator of TGF/ACTIVIN pathway (protein, listed as Homo sapiens)
chain: MPLLWLRGFLLASCWIIVRSSPTPGSEGHSAAPDCPSCALAALPKDVPNSQPEMVEAVKKHILNMLHLKKRPDVTQPVPKAALLNAIRKLHVGKVGENGYVEIEDDIGRRAEMNELMEQTSEIITFAESGTARKTLHFEISKEGSDLSVVERAEVWLFLKVPKANRTRTKVTIRLFQQQKHPQGSLDTGEEAEEVGLKGERSELLLSEKVVDARKSTWHVFPVSSSIQRLLDQGKSSLDVRIACEQCQESGASLVLLGKKKKKEEEGEGKKKGGGEGGAGADEEKEQSHRPFLMLQARQSEDHPHRRRRRGLECDGKVNICCKKQFFVSFKDIGWNDWIIAPSGYHANYCEGECPSHIAGTSGSSLSFHSTVINHYRMRGHSPFANLKSCCVPTKLRPMSMLYYDDGQNIIKKDIQNMIVEECGCS
For B1, the “ESRRB mCherry expression” value ([1]; conditions 136 with Activin A added) was “this effect is lost”.
